The results in this text go back to ChEMBL document CHEMBL5104162, “Potent inhibitory activity of hydroxylated 2-benzylidene-3,4-dihydronaphthalen-1(2H)-ones on LPS-stimulated reactive oxygen species production in RAW 264.7 macrophages” (Bioorg Med Chem Lett, 2022).

A short description of series [1]: Cytotoxicity against mouse RAW264.7 cells assessed as cell viability at 10 uM by MTS assay relative to control.
Series [2] relates to RAW264.7. Briefly: Inhibition of ROS production in LPS-induced mouse RAW264.7 cells. Type of series: functional, cell-based.

Molecules are shown by their SMILES.

As to `O=C1/C(=C/c2ccccn2)CCc2c(O)cccc21`, the viability at 10 µM in series [1] was greater than 90%. The same molecule gave a half-maximal inhibitory concentration (IC50) in series [2] of 0.74 µM. On to `O=C1/C(=C/c2cccc(F)c2)CCc2ccc(O)cc21`, for which the viability at 10 µM in series [1] was greater than 90%. In addition, it took 0.83 µM to reach half-maximal inhibition in series [2] (IC50). Taken in the same sequence, the figures for `O=C1/C(=C/c2ccncc2)CCc2ccc(O)cc21` were greater than 90% and 2.34 µM. Taken in the same sequence, the figures for `O=C1/C(=C/c2cccc(OC(F)(F)F)c2)CCc2cc(O)ccc21` were greater than 90% and 0.52 µM. Taken in the same sequence, the figures for `O=C1/C(=C/c2ccccc2Br)CCc2cc(O)ccc21` were greater than 90% and 1.07 µM. With `O=C1/C(=C/c2cccc(C(F)(F)F)c2)CCc2cc(O)ccc21`, the viability at 10 µM in series [1] was greater than 90%. Besides, half-maximal inhibition in series [2] (IC50) required 0.18 µM.

In the case of `O=C1/C(=C/c2ccccc2O)CCc2ccc(O)cc21`, in series [1], the viability at 10 µM is less than 90%. `O=C1/C(=C/c2ccc(C(F)(F)F)cc2)CCc2cc(O)ccc21`: the viability at 10 µM in series [1] was greater than 90%. Further, the half-inhibitory concentration (IC50) in series [2] is 3.26 µM.

Regarding `O=C1/C(=C/c2cccc(Br)c2)CCc2c(O)cccc21`, the viability at 10 µM in series [1] is greater than 90%. Further, in series [2], the IC50 stood at 1.7 µM. Taken in the same sequence, the figures for `O=C1/C(=C/c2ccc(OC(F)(F)F)cc2)CCc2ccc(O)cc21` were greater than 90% and 0.98 µM.

With `O=C1/C(=C/c2ccccc2Br)CCc2ccc(O)cc21`, the viability at 10 µM in series [1] was greater than 90%. Also, the IC50 in series [2] came to 0.5 µM.

`O=C1/C(=C/c2ccncc2)CCc2c(O)cccc21`: the viability at 10 µM in series [1] is greater than 90%. Also, half-maximal inhibition in series [2] (IC50) was put at 4.17 µM. Taken in the same sequence, the figures for `O=C1/C(=C/c2ccc(Br)cc2)CCc2ccc(O)cc21` were greater than 90% and 0.8 µM. With `O=C1/C(=C/c2cccc(OC(F)(F)F)c2)CCc2ccc(O)cc21`, the viability at 10 µM in series [1] is less than 90%. The same measure, in the same setting: the result for `O=C1/C(=C/c2cccc(Cl)c2)CCc2c(O)cccc21` reads less than 90%. For `O=C1/C(=C/c2cccc(O)c2)CCc2ccc(O)cc21`, the viability at 10 µM in series [1] was greater than 90%. This molecule also displayed an IC50 in series [2] of 0.81 µM.

Turning to `O=C1/C(=C/c2ccccc2Cl)CCc2ccc(O)cc21`, the viability at 10 µM in series [1] was greater than 90%. Further, inhibition in series [2] was half-maximal at 0.27 µM (IC50). The like results for `O=C1/C(=C/c2ccccc2F)CCc2cc(O)ccc21` were, in that order, greater than 90% and 1.74 µM.

With `O=C1/C(=C/c2ccccc2OC(F)(F)F)CCc2ccc(O)cc21`, the viability at 10 µM in series [1] is greater than 90%. In addition, the IC50 in series [2] stood at 0.42 µM. The like results for `O=C1/C(=C/c2cccc(O)c2)CCc2cc(O)ccc21` were, in that order, greater than 90% and 3.51 µM. As for `O=C1/C(=C/c2cccc(OC(F)(F)F)c2)CCc2c(O)cccc21`, the viability at 10 µM in series [1] is less than 90%. Regarding `O=C1/C(=C/c2ccccc2)CCc2ccc(O)cc21`, the viability at 10 µM in series [1] is greater than 90%. In series [2], this molecule returned a 50% inhibitory concentration (IC50) of 0.71 µM. Taken in the same sequence, the figures for `O=C1/C(=C/c2ccccn2)CCc2cc(O)ccc21` were greater than 90% and greater than 10 µM.

On to `O=C1/C(=C/c2ccc(F)cc2)CCc2c(O)cccc21`, for which the viability at 10 µM in series [1] is less than 90%. Consider `O=C1/C(=C/c2cccnc2)CCc2c(O)cccc21`, for which, in series [1], the viability at 10 µM is greater than 90%. In addition, half-maximal inhibition in series [2] (IC50) was put at 2.95 µM. Turning to `O=C1/C(=C/c2ccccc2O)CCc2c(O)cccc21`, the viability at 10 µM in series [1] was less than 90%. On the same count and under the same terms, as for `O=C1/C(=C/c2cccc(C(F)(F)F)c2)CCc2ccc(O)cc21`, the figure is less than 90%.

As for `O=C1/C(=C/c2ccccc2C(F)(F)F)CCc2c(O)cccc21`, in series [1], the viability at 10 µM was greater than 90%. This molecule returned a half-maximal inhibitory concentration (IC50) in series [2] of 3.83 µM. The like results for `O=C1/C(=C/c2ccc(OC(F)(F)F)cc2)CCc2cc(O)ccc21` were, in that order, greater than 90% and 1.35 µM. With `O=C1/C(=C/c2ccc(Cl)cc2)CCc2ccc(O)cc21`, in series [1], the viability at 10 µM is greater than 90%. The same molecule showed a concentration for half-maximal inhibition (IC50) in series [2] of 1.1 µM. The like results for `O=C1/C(=C/c2ccccc2Cl)CCc2c(O)cccc21` were, in that order, greater than 90% and 1.28 µM. Regarding `O=C1/C(=C/c2ccccc2O)CCc2cc(O)ccc21`, the viability at 10 µM in series [1] is greater than 90%. The molecule further showed an IC50 in series [2] of 0.55 µM. With `O=C1/C(=C/c2ccc(O)cc2)CCc2cc(O)ccc21`, in series [1], the viability at 10 µM is less than 90%. For the molecule `O=C1/C(=C/c2cccnc2)CCc2cc(O)ccc21`, the viability at 10 µM in series [1] was greater than 90%. The molecule also came in with a concentration for half-maximal inhibition (IC50) in series [2] of 2.03 µM. With `O=C1/C(=C/c2ccccc2)CCc2c(O)cccc21`, in series [1], the viability at 10 µM was less than 90%. `O=C1/C(=C/c2ccccc2OC(F)(F)F)CCc2c(O)cccc21`: in series [1], the viability at 10 µM was less than 90%. The same measure, in the same setting: as for `O=C1/C(=C/c2ccccc2OC(F)(F)F)CCc2cc(O)ccc21`, the figure is less than 90%.

For `O=C1/C(=C/c2ccccc2F)CCc2c(O)cccc21`, the viability at 10 µM in series [1] is less than 90%. `O=C1/C(=C/c2cccc(Cl)c2)CCc2cc(O)ccc21`: the viability at 10 µM in series [1] is greater than 90%. Further, in series [2], the half-inhibitory concentration (IC50) was found to be 1.75 µM.

With `O=C1/C(=C/c2ccccc2Br)CCc2c(O)cccc21`, in series [1], the viability at 10 µM is greater than 90%. Moreover, in series [2], the IC50 was 1.24 µM. `O=C1/C(=C/c2ccc(OC(F)(F)F)cc2)CCc2c(O)cccc21`: the viability at 10 µM in series [1] is less than 90%. As to `O=C1/C(=C/c2ccc(C(F)(F)F)cc2)CCc2c(O)cccc21`, the viability at 10 µM in series [1] was less than 90%. In the case of `O=C1/C(=C/c2ccccn2)CCc2ccc(O)cc21`, in series [1], the viability at 10 µM is less than 90%. Same read-out and setting: the result for `O=C1/C(=C/c2ccccc2C(F)(F)F)CCc2cc(O)ccc21` reads less than 90%.

Turning to `O=C1/C(=C/c2cccc(F)c2)CCc2cc(O)ccc21`, the viability at 10 µM in series [1] is greater than 90%. This molecule displayed a concentration for half-maximal inhibition (IC50) in series [2] of 1.23 µM.

Consider `O=C1/C(=C/c2ccc(F)cc2)CCc2cc(O)ccc21`, for which the viability at 10 µM in series [1] was greater than 90%. Besides, in series [2], the IC50 is 1.37 µM. Taken in the same sequence, the figures for `O=C1/C(=C/c2cccc(Cl)c2)CCc2ccc(O)cc21` were greater than 90% and 0.21 µM. Consider `O=C1/C(=C/c2cccc(O)c2)CCc2c(O)cccc21`, for which the viability at 10 µM in series [1] was less than 90%. Same read-out and setting: as for `O=C1/C(=C/c2ccc(O)cc2)CCc2c(O)cccc21`, the figure is less than 90%.

As to `O=C1/C(=C/c2ccccc2)CCc2cc(O)ccc21`, the viability at 10 µM in series [1] is greater than 90%. The molecule also had an IC50 in series [2] of 1.32 µM. The like results for `O=C1/C(=C/c2cccnc2)CCc2ccc(O)cc21` were, in that order, greater than 90% and 3.04 µM. Taken in the same sequence, the figures for `O=C1/C(=C/c2ccc(Br)cc2)CCc2cc(O)ccc21` were greater than 90% and 1.52 µM.

Turning to `O=C1/C(=C/c2cccc(Br)c2)CCc2cc(O)ccc21`, the viability at 10 µM in series [1] is greater than 90%. Also, the midpoint of inhibition in series [2], the IC50, lay at 1.14 µM.

As to `O=C1/C(=C/c2cccc(C(F)(F)F)c2)CCc2c(O)cccc21`, the viability at 10 µM in series [1] is greater than 90%. The same molecule gave a concentration for half-maximal inhibition (IC50) in series [2] of 1.97 µM. The like results for `O=C1/C(=C/c2ccccc2F)CCc2ccc(O)cc21` were, in that order, greater than 90% and 1.35 µM. With `O=C1/C(=C/c2ccc(C(F)(F)F)cc2)CCc2ccc(O)cc21`, the viability at 10 µM in series [1] was greater than 90%. Also, the half-maximal inhibitory concentration (IC50) in series [2] is greater than 10 µM. The like results for `O=C1/C(=C/c2cccc(Br)c2)CCc2ccc(O)cc21` were, in that order, greater than 90% and 0.48 µM. Taken in the same sequence, the figures for `O=C1/C(=C/c2ccc(F)cc2)CCc2ccc(O)cc21` were greater than 90% and 0.84 µM. The like results for `O=C1/C(=C/c2ccccc2Cl)CCc2cc(O)ccc21` were, in that order, greater than 90% and 1.91 µM.

On to `O=C1/C(=C/c2ccc(Br)cc2)CCc2c(O)cccc21`, for which the viability at 10 µM in series [1] was less than 90%. As for `O=C1/C(=C/c2cccc(F)c2)CCc2c(O)cccc21`, in series [1], the viability at 10 µM is less than 90%. Take `O=C1/C(=C/c2ccc(Cl)cc2)CCc2c(O)cccc21`: the viability at 10 µM in series [1] is less than 90%.

`O=C1/C(=C/c2ccc(Cl)cc2)CCc2cc(O)ccc21`: the viability at 10 µM in series [1] was greater than 90%. This molecule showed a half-maximal inhibitory concentration (IC50) in series [2] of 2.48 µM.

Regarding `O=C1/C(=C/c2ccc(O)cc2)CCc2ccc(O)cc21`, the viability at 10 µM in series [1] is less than 90%. Take `O=C1/C(=C/c2ccccc2C(F)(F)F)CCc2ccc(O)cc21`: the viability at 10 µM in series [1] is greater than 90%. The 50% inhibitory concentration (IC50) in series [2] amounted to 1.02 µM.
